{"source": "patent US6380201B1", "about": "“Methods of treating or ameliorating the symptoms of common cold or allergic rhinitis with serotonin 5-HT1F agonists” (Eli Lilly and Company, priority 1997, dated 2002)", "note": "Counter-ions that a name gives are not always drawn."}
{"tested_on": "not given", "conditions": "not given"}
{"compound": "CN1CCC(c2c[nH]c3ccc(Sc4ccccc4)cc23)CC1", "melting point": "147 to 150 °C"}
{"compound": "CN1CCC(c2c[nH]c3ccc(NC(=O)c4ccccc4)cc23)CC1.O=C(O)C(=O)O", "melting point": "130 °C"}
{"compound": "CN1CCC(c2c[nH]c3ccc(NC(=O)c4ccccc4Cl)cc23)CC1.O=C(O)/C=C/C(=O)O", "melting point": "209 °C (dec.)"}
{"compound": "CN1CCC(c2c[nH]c3ccc(NC(=O)c4cccc(Cl)c4)cc23)CC1.O=C(O)/C=C/C(=O)O", "melting point": "185 °C (dec.)"}
{"compound": "CN1CCC(c2c[nH]c3ccc(NC(=O)c4ccc(Cl)cc4)cc23)CC1.O=C(O)/C=C/C(=O)O", "melting point": "163 °C (dec.)"}
{"compound": "COc1ccccc1C(=O)Nc1ccc2[nH]cc(C3CCN(C)CC3)c2c1.O=C(O)/C=C/C(=O)O", "melting point": "90 °C (dec.)"}
{"compound": "COc1cccc(C(=O)Nc2ccc3[nH]cc(C4CCN(C)CC4)c3c2)c1.O=C(O)/C=C/C(=O)O", "melting point": "152 °C (dec.)"}
{"compound": "COc1ccc(C(=O)Nc2ccc3[nH]cc(C4CCN(C)CC4)c3c2)cc1.O=C(O)/C=C/C(=O)O", "melting point": "151 °C (dec.)"}
{"compound": "CN1CCC(c2c[nH]c3ccc(NC(=O)c4ccco4)cc23)CC1.O=C(O)/C=C/C(=O)O", "melting point": "114 °C (dec.)"}
{"compound": "CN1CCC(c2c[nH]c3ccc(C(=O)c4ccc(F)cc4)cc23)CC1", "melting point": "89 °C"}
{"compound": "CN1CCC(c2c[nH]c3ccc(NC(=O)Cc4ccccc4)cc23)CC1.O=C(O)C(=O)O", "melting point": "< 90 °C"}
{"compound": "CCN1CCC(c2c[nH]c3ccc(NC(=O)c4ccco4)cc23)CC1", "melting point": "178 to 179 °C"}
{"compound": "CCN1CCC(c2c[nH]c3ccc(NC(=O)c4ccc(F)cc4)cc23)CC1.O=C(O)/C=C/C(=O)O", "melting point": "152 to 155 °C"}
{"compound": "CN1CCC(c2c[nH]c3ccc(NC(=O)c4ccc(F)cc4Cl)cc23)CC1", "melting point": "159 to 162 °C"}
{"compound": "Cc1ccc(C(=O)c2ccc3[nH]cc(C4CCN(C)CC4)c3c2)cc1", "melting point": "92 °C"}
{"compound": "CN1CCC(c2c[nH]c3ccc(C(=O)c4ccc(C(F)(F)F)cc4)cc23)CC1", "melting point": "160 to 162 °C"}
{"compound": "CN1CCC(c2c[nH]c3ccc(C(=O)c4ccc(OC(F)(F)F)cc4)cc23)CC1", "melting point": "172 to 175 °C"}
{"compound": "CN1CCC(c2c[nH]c3ccc(C(=O)c4ccc(N(C)C)cc4)cc23)CC1", "melting point": "103 to 104 °C"}
{"compound": "CN1CCC(c2c[nH]c3ccc(C(=O)c4ccc5ccccc5c4)cc23)CC1", "melting point": "92 °C"}
{"compound": "CN1CCC(c2c[nH]c3ccc(C(=O)c4ccccn4)cc23)CC1", "melting point": "90 °C"}
{"compound": "CN1CCC(c2c[nH]c3ccc(NC(=O)c4cccc5ccccc45)cc23)CC1.Cl", "melting point": "193 to 203 °C"}
{"compound": "CN1CCC(c2c[nH]c3ccc(NC(=O)c4ccc5ccccc5c4)cc23)CC1", "melting point": "153 to 155.5 °C"}
{"compound": "O=C(Nc1ccc2[nH]cc(C3=CCNCC3)c2c1)c1ccc(F)cc1", "melting point": "241 °C (dec.)"}
{"compound": "O=C(Nc1ccc2[nH]cc(C3CCNCC3)c2c1)c1ccc(F)cc1", "melting point": "229 to 230 °C"}
{"compound": "COc1ccc(Sc2ccc3[nH]cc(C4CCN(C)CC4)c3c2)cc1", "melting point": "160 to 162 °C"}
{"compound": "CN1CCC(c2c[nH]c3ccc(C(=O)c4ccc(Cl)cc4)cc23)CC1", "melting point": "133 °C"}
{"compound": "CN1CC=C(c2c[nH]c3ccc(NS(C)(=O)=O)cc23)CC1", "melting point": "210 to 214 °C"}
{"compound": "CN1CC=C(c2cn(C)c3ccc(NS(C)(=O)=O)cc23)CC1", "melting point": "198 to 202 °C"}
{"compound": "Cc1[nH]c2ccc(NS(C)(=O)=O)cc2c1C1=CCN(C)CC1", "melting point": "176 to 184 °C"}
{"compound": "CCS(=O)(=O)Nc1ccc2[nH]cc(C3=CCN(C)CC3)c2c1", "melting point": "224 to 226 °C"}
{"compound": "CN1CC=C(c2c[nH]c3ccc(NS(=O)(=O)N(C)C)cc23)CC1", "melting point": "207 to 208 °C"}
{"compound": "CCN1CC=C(c2c[nH]c3ccc(NS(C)(=O)=O)cc23)CC1", "melting point": "218 to 219 °C (dec.)"}
{"compound": "CCCN1CC=C(c2c[nH]c3ccc(NS(C)(=O)=O)cc23)CC1", "melting point": "217 to 218.5 °C (dec.)"}
{"compound": "CC(C)N1CC=C(c2c[nH]c3ccc(NS(C)(=O)=O)cc23)CC1", "melting point": "211 to 213 °C (dec.)"}
{"compound": "CCCCN1CC=C(c2c[nH]c3ccc(NS(C)(=O)=O)cc23)CC1", "melting point": "202 to 204 °C"}
{"compound": "CN1CCC(c2c[nH]c3ccc(SCc4ccccc4)cc23)CC1", "melting point": "138 to 141 °C"}
{"compound": "CN1CCC(c2c[nH]c3ccc(NS(C)(=O)=O)cc23)CC1.O=C(O)C(=O)O", "melting point": "119.1 °C"}
{"compound": "Cc1[nH]c2ccc(NS(C)(=O)=O)cc2c1C1CCN(C)CC1", "melting point": "124 to 128 °C"}
{"compound": "CCS(=O)(=O)Nc1ccc2[nH]cc(C3CCN(C)CC3)c2c1", "melting point": "176 to 178 °C"}
{"compound": "CN1CCC(c2c[nH]c3ccc(NS(=O)(=O)N(C)C)cc23)CC1", "melting point": "179 to 181 °C (dec.)"}
{"compound": "CCN1CCC(c2c[nH]c3ccc(NS(C)(=O)=O)cc23)CC1", "melting point": "179 to 181 °C"}
{"compound": "CCCN1CCC(c2c[nH]c3ccc(NS(C)(=O)=O)cc23)CC1", "melting point": "87 to 90 °C"}
{"compound": "CCCCN1CCC(c2c[nH]c3ccc(NS(C)(=O)=O)cc23)CC1", "melting point": "78 °C"}
{"compound": "CN1CCC(c2c[nH]c3ccc(NS(=O)(=O)c4ccccc4)cc23)CC1", "melting point": "246 to 249 °C (dec.)"}
{"compound": "CN1CCC(c2c[nH]c3ccc(Sc4ccccn4)cc23)CC1", "melting point": "83 °C"}
{"compound": "CN1CCC(c2c[nH]c3ccc(NS(=O)(=O)c4ccc(I)cc4)cc23)CC1", "melting point": "> 250 °C"}
{"compound": "CN1CCC(c2c[nH]c3ccc(N(S(=O)(=O)C(F)(F)F)S(=O)(=O)C(F)(F)F)cc23)CC1.Cl", "melting point": "175 to 185 °C (dec.)"}
{"compound": "CN1CCC(c2c[nH]c3ccc(Sc4ccc(Cl)cc4)cc23)CC1", "melting point": "148 to 150 °C"}
{"compound": "CN1CCC(c2c[nH]c3ccc(NC(=O)Nc4ccccc4)cc23)CC1.Cl", "melting point": "215 to 220 °C"}
{"compound": "CN1CCC(c2c[nH]c3ccc(C(=O)c4ccccc4)cc23)CC1", "melting point": "101 °C"}
{"compound": "CCCCC(=O)c1ccc2[nH]cc(C3CCN(C)CC3)c2c1.Cl", "melting point": "242 to 245 °C"}
{"compound": "CN1CCC(c2c[nH]c3ccc(N4C(=O)c5ccccc5C4=O)cc23)CC1.O=C(O)C(=O)O", "melting point": "224 °C"}
{"compound": "CC(=O)Nc1ccc2[nH]cc(C3=CCN(C)CC3)c2c1", "melting point": "186 to 189 °C"}
{"compound": "CCC(=O)Nc1ccc2[nH]cc(C3=CCN(C)CC3)c2c1.O=C(O)/C=C/C(=O)O", "melting point": "170 to 173 °C"}
{"compound": "CN1CCC(c2c[nH]c3ccc(C(=O)Cc4ccccc4)cc23)CC1", "melting point": "69 °C"}
{"compound": "CN1CC=C(c2c[nH]c3ccc(NC(=O)c4ccccc4)cc23)CC1", "melting point": "> 250 °C"}
{"compound": "CN1CC=C(c2c[nH]c3ccc(NC(=O)c4ccc(Cl)cc4)cc23)CC1", "melting point": "224 to 226 °C"}
{"compound": "COc1ccc(C(=O)Nc2ccc3[nH]cc(C4=CCN(C)CC4)c3c2)cc1", "melting point": "232 °C (dec.)"}
{"compound": "CN1CC=C(c2c[nH]c3ccc(NC(=O)c4ccc(F)cc4Cl)cc23)CC1", "melting point": "212 to 222 °C"}
{"compound": "CCN1CC=C(c2c[nH]c3ccc(NC(=O)c4ccc(F)cc4)cc23)CC1", "melting point": "127 to 135 °C (dec.)"}
{"compound": "CN1CC=C(c2c[nH]c3ccc(NC(=O)c4ccco4)cc23)CC1", "melting point": "190 °C (dec.)"}
{"compound": "CN1CC=C(c2c[nH]c3ccc(NC(=O)c4cccs4)cc23)CC1", "melting point": "229 to 233 °C (dec.)"}
{"compound": "CC(=O)Nc1ccc2[nH]cc(C3CCN(C)CC3)c2c1", "melting point": "161 to 165 °C (dec.)"}
{"compound": "CCC(=O)Nc1ccc2[nH]cc(C3CCN(C)CC3)c2c1.O=C(O)/C=C/C(=O)O", "melting point": "88 to 92 °C (dec.)"}
{"compound": "CN1CCC(c2c[nH]c3ccc(NC(=O)C(C)(C)C)cc23)CC1", "melting point": "214 to 216 °C (dec.)"}
{"compound": "CC(=O)c1ccc2[nH]c3c(c2c1)CC(N(C)C)CC3", "note": "(stereo not shown)", "melting point": "181 to 182 °C"}
{"compound": "CN(C)[C@@H]1CCc2c([nH]c3ccc(Br)cc23)C1.I", "melting point": "252 °C"}
{"compound": "Br.C=C(C)C(=O)Nc1ccc2[nH]c3c(c2c1)CC(N(C)C)CC3", "note": "(stereo not shown)", "melting point": "236 to 238 °C"}
{"compound": "Br.CN(C)C1CCc2[nH]c3ccc(NC(=O)C4CC4)cc3c2C1", "note": "(stereo not shown)", "melting point": "216 to 218 °C"}
{"compound": "Br.CN(C)C1CCc2[nH]c3ccc(NC(=O)C4CCC4)cc3c2C1", "note": "(stereo not shown)", "melting point": "214 to 216 °C"}
{"compound": "Br.CN(C)C1CCc2[nH]c3ccc(NC(=O)C4CCCCC4)cc3c2C1", "note": "(stereo not shown)", "melting point": "224 to 226 °C"}
{"compound": "Cl.NC1CCc2[nH]c3ccc(NC(=O)c4ccc(F)cc4)cc3c2C1", "note": "(stereo not shown)", "melting point": "252 to 255 °C"}
{"compound": "Cl.O=C(Nc1ccc2[nH]c3c(c2c1)CC(NCCc1ccccc1)CC3)c1ccc(F)cc1", "note": "(stereo not shown)", "melting point": "207 to 208 °C"}
{"compound": "Cl.O=C(Nc1ccc2[nH]c3c(c2c1)CC(NCCc1ccc(F)cc1)CC3)c1ccc(F)cc1", "note": "(stereo not shown)", "melting point": "210 to 211 °C"}
{"compound": "NC1CCc2[nH]c3ccc(O)cc3c2C1", "note": "(stereo not shown)", "melting point": "230 °C (dec.)"}
{"compound": "Cl.Oc1ccc2[nH]c3c(c2c1)CC(NCCc1ccccc1)CC3", "note": "(stereo not shown)", "melting point": "178 to 180 °C"}
{"compound": "Cl.Oc1ccc2[nH]c3c(c2c1)CC(NCCc1ccc(F)cc1)CC3", "note": "(stereo not shown)", "melting point": "160 °C (dec.)"}
{"compound": "Cl.Clc1ccc(CCNC2CCc3[nH]c4ccc(OCc5ccccc5)cc4c3C2)cc1", "note": "(stereo not shown)", "melting point": "238 to 240 °C"}
{"compound": "Cl.Cn1cc(CCNC2CCc3[nH]c4ccc(O)cc4c3C2)cn1", "note": "(stereo not shown)", "melting point": "286 °C (dec.)"}
{"compound": "CC(C)n1cc(CCNC2CCc3[nH]c4ccc(O)cc4c3C2)cn1.Cl", "note": "(stereo not shown)", "melting point": "251 to 253 °C"}
{"compound": "CC(C)N1CCC(c2c[nH]c3ccc(NS(C)(=O)=O)cc23)CC1", "note": "(as salt: salt)", "melting point": "104 to 108 °C"}
{"compound": "CC(=O)c1ccc2[nH]cc(C3CCN(C)CC3)c2c1.Cl.O", "note": "(hydrate or solvate)", "melting point": "65 °C"}
{"molecular_target": "human 5-HT1D receptor (Homo sapiens, UniProt P28221)", "sequence (P28221 whole entry)": "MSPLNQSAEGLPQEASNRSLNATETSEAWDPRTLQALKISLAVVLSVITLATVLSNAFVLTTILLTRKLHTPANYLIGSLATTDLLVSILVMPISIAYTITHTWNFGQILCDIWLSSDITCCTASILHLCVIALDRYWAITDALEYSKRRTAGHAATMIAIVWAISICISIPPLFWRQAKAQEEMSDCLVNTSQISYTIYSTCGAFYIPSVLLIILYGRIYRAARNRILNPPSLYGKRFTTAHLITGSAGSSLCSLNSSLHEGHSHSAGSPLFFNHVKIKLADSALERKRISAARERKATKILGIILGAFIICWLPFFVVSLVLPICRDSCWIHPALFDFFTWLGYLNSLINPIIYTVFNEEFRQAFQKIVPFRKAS", "conditions": "cited from earlier work"}
{"compound": "CNS(=O)(=O)Cc1ccc2[nH]cc(CCN(C)C)c2c1", "note": "[Sumatriptan]", "affinity": "high affinity"}
{"molecular_target": "T1, 5-HT1F receptor (Homo sapiens, UniProt P30939)", "T1 sequence (P30939 1-366)": "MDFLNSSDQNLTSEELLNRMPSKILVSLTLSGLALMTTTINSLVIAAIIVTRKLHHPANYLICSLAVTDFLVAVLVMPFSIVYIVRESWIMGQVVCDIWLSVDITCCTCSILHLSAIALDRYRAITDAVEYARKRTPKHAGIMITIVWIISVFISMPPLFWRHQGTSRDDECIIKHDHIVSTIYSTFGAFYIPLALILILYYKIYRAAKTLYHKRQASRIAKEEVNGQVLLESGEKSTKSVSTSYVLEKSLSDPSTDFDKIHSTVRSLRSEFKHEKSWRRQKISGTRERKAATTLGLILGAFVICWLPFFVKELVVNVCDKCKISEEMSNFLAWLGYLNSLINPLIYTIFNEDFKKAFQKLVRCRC", "conditions": "cited from earlier work"}
{"compound": "NCCc1c[nH]c2ccc(C(N)=O)cc12", "note": "[5-carboxamidotryptamine]", "affinity": "low affinity"}
{"compound": "CNS(=O)(=O)Cc1ccc2[nH]cc(CCN(C)C)c2c1", "note": "[Sumatriptan]", "affinity": "show affinity"}
